Measurements: US20240262842A1, “SMALL MOLECULE INHIBITORS OF KRAS G12C MUTANT” (Merck Sharp & Dohme LLC, priority 2021, published 2024)

How the values were obtained:
[1] = target: T1, interaction between GMPPNP-bound recombinant K-Ras4B G12C mutant protein and cRAF RAS-binding domain (cRAF-RBD) (Homo sapiens, UniProt P01116, G12C); assay: Inhibitory activity on interaction between KRAS G12C and cRAF (Alpha technology); settings: GMPPNP-bound KRAS G12C incubated with compound 25° C. 1 hour; Table 2-1; read-out: IC50
T1 construct: His-tag (N)
Procedure, shortened: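 Alpha signal measured 1.5 h after adding cRAF-RBD (aa 50-132) and detection reagents to GMPPNP-bound KRAS G12C (aa 1-169) pretreated 1 h at 25° C with compound (pH 7.5 buffer). 0% inhibition = DMSO, 100% = GDP-loaded KRAS; IC50 by curve fit.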

MIA PaCa-2 cells = assay: Growth inhibition activity on KRAS-G12C mutant cell line (CellTiter-Glo 3D); type: cell-based, human; settings: MIA PaCa-2, 3-day culture with compound, Table 3-1
Procedure, shortened: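 IC50 (nM) derived from inhibition of luminescence (CellTiter-Glo 3D) relative to compound-free wells. Cells were seeded in U-bottom plates, grown 1 day, then exposed to compound for 3 days at 37 °C with 0.2% final DMSO.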

T1 sequence (P01116 with tags, fused parts or gaps isoform P01116-2 G12C): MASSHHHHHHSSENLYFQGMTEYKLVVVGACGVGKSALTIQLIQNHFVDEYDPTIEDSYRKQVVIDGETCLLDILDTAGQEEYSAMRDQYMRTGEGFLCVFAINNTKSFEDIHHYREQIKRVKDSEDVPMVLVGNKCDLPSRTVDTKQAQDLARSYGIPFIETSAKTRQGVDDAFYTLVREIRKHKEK

Compound	IC50 [1] [nM]	IC50 (MIA PaCa-2 cells; Homo sapiens, MIA PaCa-2, 72 h) [nM]	IC50 (MIA PaCa-2 cells) [nM]
COc1cc2c(nc(C(F)(F)F)n2C)c2c1-c1cccn3c(C(=O)c4cc(F)c(NC(=O)/C=C/CN[C@H]5CCOC5)c(F)c4)cc(c13)CCN2C (single isomer, unassigned) [Example 168]	43.8	15.6	–
COCc1nc2c3c(c(OC)cc2n1C)-c1cccn2c(C(=O)c4cc(F)c(NC(=O)/C=C/CNC5(C)COC5)c(F)c4)cc(c12)CCN3C (single isomer, unassigned) [Example 170, (E)-N-(2,6-difluoro-4-(7-methoxy-10-(methoxy-methyl)-9,12-dimethyl-9,12,13,14-tetrahydro-imidazo[4″,5″:5′,6′]benzo-[1′,2′:2,3]azocino[4,5,6-hi]indolizine-2-carbonyl)-phenyl)-4-((3-methyl-oxetan-3-yl)amino)but-2-enamide]	14.1	47.7	–
COCc1nc2c3c(c(OC)cc2n1C)-c1cccn2c(C(=O)c4cc(F)c(NC(=O)/C=C/CN[C@H]5CCOC5)c(F)c4)cc(c12)CCN3C (single isomer, unassigned) [Example 171]	6.34	13.5	–
Cc1c2cc(C(F)(F)F)c3c(c2nn1C)N(C)CCc1nc(C(=O)c2cc(F)c(NC(=O)/C=C/CN[C@H]4CCOC4)c(F)c2)n2cccc-3c12 (single isomer, unassigned) [Example 176]	67.4	25.1	–
COCc1nc2c3c(c(OC)cc2n1C)-c1cccn2c(C(=O)c4cc(F)c(NC(=O)/C=C/CN[C@H]5CCOC5)c(F)c4)nc(c12)CCN3C (single isomer, unassigned) [Example 177]	39.5	38.5	–
COCCn1cnc2c3c(c(C(F)(F)F)cc21)-c1cccn2c(C(=O)c4cc(F)c(NC(=O)/C=C/CNC5(C)COC5)c(F)c4)cc(c12)CCN3C (single isomer, unassigned) [Example 178, (E)-N-(2,6-difluoro-4-(9-(2-methoxyethyl)-12-methyl-7-(trifluorometh-yl)-9,12,13,14-tetrahydro-imidazo[4″,5″:5′,6′]benzo-[1′,2′:2,3]azocino[4,5,6-hi]indolizine-2-carbonyl)-phenyl)-4-((3-methyl-oxetan-3-yl)amino)but-2-enamide]	32.4	41.3	–
CN1CCc2cc(C(=O)c3cc(F)c(NC(=O)/C=C/CNC4(C)COC4)c(F)c3)n3cccc(c23)-c2c(C(F)(F)F)cc3[nH]cnc3c21 (single isomer, unassigned) [Example 179, (E)-N-(2,6-difluoro-4-(12-methyl-7-(trifluorometh-yl)-9,12,13,14-tetrahydro-imidazo[4″,5″:5′,6′]benzo-[1′,2′:2,3]azocino[4,5,6-hi]indolizine-2-carbonyl)-phenyl)-4-((3-methyloxe-tan-3-yl)amino)but-2-enamide]	41.6	139	–
CN1CCc2cc(C(=O)c3cc(F)c(NC(=O)/C=C/CN4CC[C@H]4C(C)(C)O)c(F)c3)n3cccc(c23)-c2c(C(F)(F)F)cc3c(ncn3C)c21 (single isomer, unassigned) [Example 180]	49.3	12.7	–
COCc1nc2c3c(c(OC)cc2n1C)-c1cccn2c(C(=O)c4cc(F)c(NC(=O)/C=C/CNC5(C)CC5)c(F)c4)nc(c12)CCN3C (single isomer, unassigned) [Example 181, (E)-N-(2,6-difluoro-4-(6-methoxy-9-(methoxy-methyl)-8,11-dimethyl-8,11,12,13-tetrahydro-1,2a,8,10,11-pentaaza-cycloocta[1,2,3-cd:5,4-e′]-diindene-2-carbonyl)phen-yl)-4-((1-methylcyclo-propyl)amino)but-2-en-amide]	48.1	21	–
CN1CCc2nc(C(=O)c3cc(F)c(NC(=O)/C=C/CNC4(C)CC4)c(F)c3)n3cccc(c23)-c2c(C(F)(F)F)cc3c(ncn3C)c21 (single isomer, unassigned) [Example 182]	35.2	27.8	–
CC1(NC/C=C/C(=O)Nc2c(F)cc(C(=O)c3cc4c5c(cccn35)-c3c(cc(N5CCCC5=O)cc3C(F)(F)F)OCC4)cc2F)COC1 (single isomer, unassigned) [Example 183, (E)-N-(2,6-difluoro-4-(7-(2-oxopyrrolidin-1-yl)-9-(trifluoromethyl)-3,4-dihydrobenzo[2,3]oxocino-[4,5,6-hi]indolizine-1-carbonyl)phenyl)-4-((3-methyloxetan-3-yl)-amino)-but-2-enamide]	35.2	112	–
COCc1nc2c3c(c(C(F)(F)F)cc2n1C)-c1cccn2c(C(=O)c4cc(F)c(NC(=O)/C=C/CN[C@H]5CCOC5)c(F)c4)nc(c12)CCN3C (single isomer, unassigned) [Example 184]	48.3	28.1	–
COCCn1cnc2c3c(c(C(F)(F)F)cc21)-c1cccn2c(C(=O)c4cc(F)c(NC(=O)/C=C/CN[C@H]5CCOC5)c(F)c4)cc(c12)CCN3C (single isomer, unassigned) [Example 186]	16.7	10.3	–
COCc1nc2c3c(c(OC)cc2n1C)-c1cccn2c(C(=O)c4cc(F)c(NC(=O)/C=C/CN5CCCC5)c(F)c4)cc(c12)CCN3C (single isomer, unassigned) [Example 188, (E)-N-(2,6-difluoro-4-(7-methoxy-10-(methoxy-methyl)-9,12-dimethyl-9,12,13,14-tetrahydro-imidazo[4″,5″:5′,6′]benzo-[1,2:2,3]azocino[4,5,6-hi]indolizine-2-carbonyl)-phenyl)-4-(pyrrolidin-1-yl)but-2-enamide]	72.5	39.7	–
CN1CCc2cc(C(=O)c3cc(F)c(NC(=O)/C=C/CN4CC[C@H]4CO)c(F)c3)n3cccc(c23)-c2c(C(F)(F)F)cc3c(ncn3C)c21 (single isomer, unassigned) [Example 199]	10.1	3.67	–
COCCn1c(C)nc2c3c(c(OC)cc21)-c1cccn2c(C(=O)c4cc(F)c(NC(=O)/C=C/CNC5(C)CC5)c(F)c4)cc(c12)CCN3C (single isomer, unassigned) [Example 200, (E)-N-(2,6-difluoro-4-(7-methoxy-9-(2-methoxyethyl)-10,12-dimethyl-9,12,13,14-tetrahydroimidazo[4″,5″:5′,6′]benzo[1′,2′:2,3]azocino[4,5,6-hi]indolizine-2-carbonyl)phenyl)-4-((1-methylcyclopropyl)amino)but-2-enamide]	13.7	4.62	–
COCCn1c(C)nc2c3c(c(OC)cc21)-c1cccn2c(C(=O)c4cc(F)c(NC(=O)/C=C/CN[C@H]5CCOC5)c(F)c4)cc(c12)CCN3C (single isomer, unassigned) [Example 201]	17.6	5.83	–
COCCn1cnc2c3c(c(OC)cc21)-c1cccn2c(C(=O)c4cc(F)c(NC(=O)/C=C/CNC5(C)CC5)c(F)c4)cc(c12)CCN3C (single isomer, unassigned) [Example 202, (E)-N-(2,6-difluoro-4-(7-methoxy-9-(2-methoxy-ethyl)-12-methyl-9,12,13,14-tetrahydro-imidazo[4″,5″:5′,6′]benzo-[1′,2′:2,3]azocino[4,5,6-hi]indolizine-2-carbonyl)-phenyl)-4-((1-methyl-cyclopropyl)amino)but-2-enamide]	13	10.2	–
COCCn1cnc2c3c(c(OC)cc21)-c1cccn2c(C(=O)c4cc(F)c(NC(=O)/C=C/CN[C@H]5CCOC5)c(F)c4)cc(c12)CCN3C (single isomer, unassigned) [Example 203]	20.4	11	–
CC(O)[C@]1(C)CCCN1C/C=C/C(=O)Nc1c(F)cc(C(=O)c2cc3c4c(cccn24)-c2c(C(F)(F)F)cc4c(ncn4C)c2N(C)CC3)cc1F (single isomer, unassigned) [Example 204]	36.4	–	118
CC(O)[C@]1(C)CCCN1C/C=C/C(=O)Nc1c(F)cc(C(=O)c2cc3c4c(cccn24)-c2c(C(F)(F)F)cc4c(ncn4C)c2N(C)CC3)cc1F (single isomer, unassigned) [Example 205]	29.5	–	8.55
CN1CCc2cc(C(=O)c3cc(F)c(NC(=O)/C=C/CN4[C@@H]5CC[C@H]4[C@H](O)C5)c(F)c3)n3cccc(c23)-c2c(C(F)(F)F)cc3c(ncn3C)c21 (single isomer, unassigned) [Example 206]	15.4	10.3	–
CN1CCc2cc(C(=O)c3cc(F)c(NC(=O)/C=C/CN4[C@@H]5CC[C@H]4[C@H](O)C5)c(F)c3)n3cccc(c23)-c2c(C(F)(F)F)cc3c(ncn3C)c21 (single isomer, unassigned) [Example 207]	26.9	–	11.2
Cc1nnc2c3c(c(C(F)(F)F)cn12)-c1cccn2c(C(=O)c4cc(F)c(NC(=O)/C=C/CNC5(C)COC5)c(F)c4)cc(c12)CCN3C (single isomer, unassigned) [Example 216, (E)-N-(4-(10,13-dimethyl-7-(trifluoromethyl)-14,15-dihydro-13H-[1,2,4]-triazolo[4″,3″:1′,2′]pyrido-[3′,4′:2,3]azocino[4,5,6-hi]indolizine-2-carbonyl)-2,6-difluorophenyl)-4-((3-methyloxetan-3-yl)-amino)but-2-enamide]	57.6	23.3	–
